Test results reported in the supplement of paper PMC10307832.

Legend:
Test in all cases: relative viability (nuclei count vs DMSO), 5 days (fraction); higher = more cells survive
[1] = compound: COc1cccc2c1C(=O)c1c(O)c3c(c(O)c1C2=O)C[C@@](O)(C(=O)CO)C[C@@H]3O[C@H]1C[C@H](N)[C@H](O)[C@H](C)O1 [Doxorubicin] + CS(=O)(=O)N1CCN(Cc2cc3nc(-c4cccc5[nH]ncc45)nc(N4CCOCC4)c3s2)CC1 [Pictilisib] (partner 1 µM)
Method in brief: (§1)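 Each reported value is a median over duplicate plates. It expresses relative viability: treated-well nuclei count divided by vehicle-well nuclei count. Lung cancer cell lines in 1536-well plates were dosed by pin tool a day after seeding, alone with one drug or with a fixed anchor-drug dose plus five library-drug doses (not always all listed) in √10 steps, and nuclei were counted after 5 days.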

[2] = compound: COC1=C(C=C(C=C1)C2=CC3=NC=CN3C(=N2)NC4=C(C=CC=N4)C(=O)N)OC [BAY61-3606] + CCNC(=O)c1noc(-c2cc(C(C)C)c(O)cc2O)c1-c1ccc(CN2CCOCC2)cc1 [Luminespib] (partner 0.01 µM)
Method in brief: as §1

[3] = compound: COC1=C(C=C(C=C1)C2=CC3=NC=CN3C(=N2)NC4=C(C=CC=N4)C(=O)N)OC [BAY61-3606] + CC(=O)Nc1cccc(-n2c(=O)n(C3CC3)c(=O)c3c(Nc4ccc(I)cc4F)n(C)c(=O)c(C)c32)c1 [Trametinib] (partner 0.02 µM)
Method in brief: as §1

[4] = compound: COc1cccc2c1C(=O)c1c(O)c3c(c(O)c1C2=O)C[C@@](O)(C(=O)CO)C[C@@H]3O[C@H]1C[C@H](N)[C@H](O)[C@H](C)O1 [Doxorubicin] + O=C(c1cc(Cc2n[nH]c(=O)c3ccccc23)ccc1F)N1CCN(C(=O)C2CC2)CC1 [Olaparib] (partner 8 µM)
Method in brief: as §1

Cell Line | relative viability ([1]; first compound 0.001 µM) | relative viability ([1]; first compound 0.003162 µM) | relative viability ([1]; first compound 0.01 µM) | relative viability ([1]; first compound 0.03162 µM) | relative viability ([1]; first compound 0.1 µM) | relative viability ([2]; first compound 0.02 µM) | relative viability ([2]; first compound 0.06325 µM) | relative viability ([2]; first compound 0.2 µM) | relative viability ([2]; first compound 0.6325 µM) | relative viability ([2]; first compound 2 µM) | relative viability ([3]; first compound 0.02 µM) | relative viability ([3]; first compound 0.06325 µM) | relative viability ([3]; first compound 0.2 µM) | relative viability ([3]; first compound 0.6325 µM) | relative viability ([3]; first compound 2 µM) | relative viability ([4]; first compound 0.001 µM) | relative viability ([4]; first compound 0.003162 µM) | relative viability ([4]; first compound 0.01 µM) | relative viability ([4]; first compound 0.03162 µM) | relative viability ([4]; first compound 0.1 µM)
NCI-H1650 | 0.29 | 0.371 | 0.241 | 0.159 | 0.119 | 0.182 | 0.184 | 0.191 | 0.203 | 0.208 | 0.661 | 0.514 | 0.595 | 0.569 | 0.29 | 0.764 | 0.865 | 0.401 | 0.179 | 0.127
NCI-H1651 | 0.608 | 0.437 | 0.412 | 0.138 | 0.107 | 1.03 | 0.869 | 0.664 | 1.13 | 0.603 | 0.929 | 0.809 | 0.833 | 0.844 | 0.762 | 0.216 | 0.182 | 0.205 | 0.184 | 0.198
NCI-H1666 | 0.376 | 0.37 | 0.309 | 0.237 | 0.271 | 1.12 | 0.998 | 1.13 | 1.08 | 1.05 | 0.828 | 0.973 | 0.822 | 0.792 | 0.768 | – | 0.701 | 0.733 | 0.602 | 0.607
NCI-H1734 | 0.464 | 0.498 | 0.389 | 0.321 | 0.267 | 0.26 | 0.179 | 0.188 | 0.278 | 0.167 | 0.708 | 0.667 | 0.636 | 0.671 | 0.568 | 0.294 | 0.689 | 0.644 | 0.435 | 0.565
NCI-H1755 | 0.342 | 0.508 | 0.451 | 0.444 | 0.44 | 0.367 | 0.495 | 0.397 | 0.433 | 0.384 | 0.768 | 0.853 | 0.792 | 0.769 | 0.762 | 0.837 | 0.911 | 0.818 | 0.873 | 0.896
NCI-H1792 | 0.325 | 0.287 | 0.309 | 0.209 | 0.251 | 0.462 | 0.404 | 0.439 | 0.581 | 0.274 | 0.574 | 0.361 | 0.353 | 0.412 | 0.396 | 0.506 | 0.473 | 0.473 | 0.412 | 0.548
NCI-H1793 | – | 0.365 | 0.417 | 0.309 | 0.301 | 0.177 | 0.159 | – | 0.163 | 0.182 | 0.445 | 0.414 | 0.449 | 0.437 | 0.478 | – | 0.93 | 0.759 | 0.566 | 0.88
NCI-H1915 | 0.854 | 1.01 | 0.954 | 1.06 | 1.03 | 0.777 | 0.86 | 0.686 | 0.731 | 0.369 | 0.35 | 0.29 | 0.325 | 0.315 | 0.246 | 0.256 | 0.258 | 0.249 | 0.311 | 0.27
NCI-H1944 | 0.327 | 0.346 | 0.381 | 0.345 | 0.347 | 0.802 | 0.674 | 0.734 | 0.688 | 0.282 | 0.469 | 0.392 | 0.405 | 0.369 | 0.299 | 0.403 | 0.37 | 0.384 | 0.378 | 0.423
NCI-H1975 | 0.292 | 0.3 | 0.237 | 0.177 | 0.198 | 0.18 | 0.199 | 0.268 | 0.247 | 0.119 | 0.409 | 0.295 | 0.354 | 0.325 | 0.254 | 0.746 | 0.896 | 0.728 | 0.575 | 0.37
NCI-H1993 | 0.78 | 0.817 | 0.748 | 0.814 | 0.656 | 0.947 | 0.736 | 0.873 | 0.901 | 0.527 | 0.498 | 0.507 | 0.544 | 0.538 | 0.518 | 0.0056 | 0.942 | 1.03 | 0.817 | 0.962
NCI-H2009 | 0.712 | 0.777 | 0.719 | 0.535 | 0.282 | 1.08 | 1.04 | 0.976 | 0.992 | 0.902 | 0.318 | 0.229 | 0.378 | 0.303 | 0.206 | 0.735 | 0.557 | 0.64 | 0.457 | 0.315
NCI-H2023 | 0.169 | 0.248 | 0.192 | 0.104 | 0.0731 | 0.885 | 0.614 | 0.669 | 0.778 | 0.535 | 0.571 | 0.64 | 0.518 | 0.587 | 0.413 | 0.454 | 0.336 | 0.19 | 0.0859 | 0.0625
NCI-H2085 | 0.509 | 0.537 | 0.512 | 0.459 | 0.519 | 0.416 | 0.469 | 0.486 | 0.443 | 0.412 | 0.666 | 0.45 | 0.511 | 0.59 | 0.42 | 0.788 | 0.825 | 0.828 | 0.92 | 0.775
NCI-H2087 | 0.703 | 0.886 | 0.841 | 0.495 | 0.454 | 0.188 | 0.132 | 0.181 | 0.196 | 0.139 | 0.228 | 0.196 | 0.202 | 0.178 | 0.2 | 0.652 | 0.528 | 0.445 | 0.443 | 0.372
NCI-H2126 | 0.494 | 0.523 | 0.501 | 0.49 | 0.517 | 0.964 | 0.916 | 0.869 | 1.07 | 0.731 | 0.622 | 0.539 | 0.514 | 0.567 | 0.57 | 0.908 | 0.962 | 0.916 | 0.941 | 0.907
